Assay results as given in patent publication US8017612B2, “Piperazine compound and use thereof as a HCV polymerase inhibitor” (priority 2006, dated 2011).
Counter-ions that a name gives are not always drawn.

What was measured:
[1] = biological target: T1, HCV polymerase (NS5B) type 1b (Hepatitis C virus genotype 1b, UniProt P26663); experiment: Assay of enzyme (HCV polymerase) inhibitory activity, type 1b enzyme; type: biochemical, HCV BK strain (type 1b); conditions: HCV polymerase inhibitory activity (IC50), 1b, type 1b enzyme 0.5 μg/ml, 25° C., 60 min
T1 construct: a region encoding NS5B (J Virol 1991 March, 65(3), 1105-13, 544 amino acids after deletion of 47 amino acids on the C-terminal); 6xHis (C); made in house; host or cells: Escherichia coli
Outline: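 His-tagged, C-terminally truncated NS5B (BK strain, 1b; 0.5 μg/ml) incubated with compound 60 min at 25 °C on 3′UTR-derived substrate RNA (5 μg/ml), 50 μM ATP/GTP/CTP, 2 μM UTP plus [3H]UTP, pH 7.5. Acid-precipitated RNA counted; IC50 from radioactivity with and without compound.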

[2] = biological target: T2, HCV polymerase (NS5B) type 1a (Hepatitis C virus genotype 1a, UniProt P26664); experiment: Assay of enzyme (HCV polymerase) inhibitory activity, type 1a enzyme; type: biochemical, HCV type 1a (cloned from the blood of patients); conditions: HCV polymerase inhibitory activity (IC50), 1a, type 1a enzyme 1.5 μg/ml, 25° C., 60 min
T2 construct: made in house; host or cells: Escherichia coli (by the 'similar method' of the 1b enzyme)
Outline: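 His-tagged NS5B, C-terminal 47 residues deleted, type 1a at 1.5 μg/ml, with 5 μg/ml HCV 3′UTR substrate RNA, 50 μM ATP/GTP/CTP, 2 μM UTP plus [3H]UTP, pH 7.5 Tris, 5 mM MgCl2; 60 min at 25° C. TCA-precipitated RNA counted by scintillation; IC50 from radioactivity with vs. without compound.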

SMILES: CC(C)c1ccc(CNC(=O)[C@H]2CN(C(=O)CNCCC(=O)O)CCN2S(=O)(=O)c2ccc(C(F)(F)F)cc2)cc1 [Example 391, 3-{2-[(R)-3-(4-isopropyl-benzylcarbamoyl)-4-(4-trifluoromethyl-benzenesulfonyl)-piperazin-1-yl]-2-oxo-ethylamino}-propionic acid hydrochloride]
- IC50 [1]: 100 to 1000 nM
- IC50 [2]: 100 to 1000 nM

SMILES: COc1ccc(CCNC(=O)[C@H]2CN(C(C)=O)CCN2S(=O)(=O)c2ccc(C(C)C)cc2)cc1 [Example 392, (R)-4-acetyl-1-(4-isopropyl-benzenesulfonyl)-piperazine-2-carboxylic acid [2-(4-methoxy-phenyl)-ethyl]-amide]
- IC50 [1]: > 1000 nM
- IC50 [2]: > 1000 nM

SMILES: CC(=O)N1CCN(S(=O)(=O)c2ccc(C(C)C)cc2)[C@@H](C(=O)NCCc2ccc(C(=O)O)cc2)C1 [Example 393, 4-(2-{[(R)-4-acetyl-1-(4-isopropyl-benzenesulfonyl)-piperazine-2-carbonyl]-amino}-ethyl)-benzoic acid]
- IC50 [1]: > 1000 nM
- IC50 [2]: > 1000 nM

SMILES: CCCc1ccc(S(=O)(=O)N2CCN(c3nc(COC)c(C(=O)O)s3)C[C@@H]2C(=O)NCc2ccc(C(C)C)cc2)cc1 [Example 394, 2-[(R)-3-(4-isopropyl-benzylcarbamoyl)-4-(4-propyl-benzenesulfonyl)-piperazin-1-yl]-4-methoxymethyl-thiazole-5-carboxylic acid]
- IC50 [1]: < 100 nM
- IC50 [2]: < 100 nM

SMILES: CC(=O)N1CCN(S(=O)(=O)c2ccc(C(C)C)cc2)[C@@H](C(=O)NCCc2ccncc2)C1 [Example 395, (R)-4-acetyl-1-(4-isopropyl-benzenesulfonyl)-piperazine-2-carboxylic acid (2-pyridin-4-yl-ethyl)-amide]
- IC50 [1]: > 1000 nM
- IC50 [2]: > 1000 nM

SMILES: CC(=O)N1CCN(S(=O)(=O)c2ccc(C(C)C)cc2)[C@@H](C(=O)NCCc2ccccn2)C1 [Example 396, (R)-4-acetyl-1-(4-isopropyl-benzenesulfonyl)-piperazine-2-carboxylic acid (2-pyridin-2-yl-ethyl)-amide]
- IC50 [1]: > 1000 nM
- IC50 [2]: > 1000 nM

SMILES: CC(=O)N1CCN(S(=O)(=O)c2ccc(C(C)C)cc2)[C@@H](C(=O)NCCc2cccnc2)C1 [Example 397, (R)-4-acetyl-1-(4-isopropyl-benzenesulfonyl)-piperazine-2-carboxylic acid (2-pyridin-3-yl-ethyl)-amide]
- IC50 [1]: > 1000 nM
- IC50 [2]: > 1000 nM

SMILES: Cc1nc(N2CCN(S(=O)(=O)c3ccc(OC(F)(F)F)cc3)[C@@H](C(=O)NCc3ccc(N4CCC4)cc3)C2)sc1C(=O)O [Example 398, 2-[(R)-3-(4-azetidin-1-yl-benzylcarbamoyl)-4-(4-trifluoromethoxy-benzenesulfonyl)-piperazin-1-yl]-4-methyl-thiazole-5-carboxylic acid]
- IC50 [1]: < 100 nM
- IC50 [2]: 100 to 1000 nM

SMILES: CN(C)c1ccc(CNC(=O)[C@H]2CN(c3cnc(C(=O)O)cn3)CCN2S(=O)(=O)c2ccc(OC(F)(F)F)cc2)cc1 [Example 399, (R)-3-(4-dimethylamino-benzylcarbamoyl)-4-(4-trifluoromethoxy-benzenesulfonyl)-3,4,5,6-tetrahydro-2H-[1,2′]bipyrazinyl-5′-carboxylic acid]
- IC50 [1]: < 100 nM
- IC50 [2]: < 100 nM

SMILES: CC(=O)N1CCN(S(=O)(=O)c2ccc(C3CC3)cc2)[C@@H](C(=O)NCc2ccc(C(C)C)cc2)C1 [Example 400, (R)-4-acetyl-1-(4-cyclopropyl-benzenesulfonyl)-piperazine-2-carboxylic acid 4-isopropyl-benzylamide]
- IC50 [1]: < 100 nM
- IC50 [2]: < 100 nM

SMILES: Cc1nc(N2CCN(S(=O)(=O)c3ccc(OC(F)(F)F)cc3)[C@@H](C(=O)NCc3ccccc3)C2)sc1C(=O)O [Example 401, 2-[(R)-3-benzylcarbamoyl-4-(4-trifluoromethoxy-benzenesulfonyl)-piperazin-1-yl]-4-methyl-thiazole-5-carboxylic acid]
- IC50 [1]: 100 to 1000 nM
- IC50 [2]: > 1000 nM

SMILES: CC(=O)N1CCN(S(=O)(=O)c2ccc(C(C)C)cc2)[C@@H](C(=O)NCCN2CCCCC2)C1 [Example 402, (R)-4-acetyl-1-(4-isopropyl-benzenesulfonyl)-piperazine-2-carboxylic acid (2-piperidin-1-yl-ethyl)-amide]
- IC50 [1]: > 1000 nM
- IC50 [2]: > 1000 nM

SMILES: CC(=O)N1CCN(S(=O)(=O)c2ccc(C(C)C)cc2)[C@@H](C(=O)NCCN2CCOCC2)C1 [Example 403, (R)-4-acetyl-1-(4-isopropyl-benzenesulfonyl)-piperazine-2-carboxylic acid (2-morpholin-4-yl-ethyl)-amide]
- IC50 [1]: > 1000 nM
- IC50 [2]: > 1000 nM

SMILES: CC(=O)N1CCN(S(=O)(=O)c2ccc(C(C)C)cc2)[C@@H](C(=O)NCCCN2CCOCC2)C1 [Example 404, (R)-4-acetyl-1-(4-isopropyl-benzenesulfonyl)-piperazine-2-carboxylic acid (3-morpholin-4-yl-propyl)-amide]
- IC50 [1]: > 1000 nM
- IC50 [2]: > 1000 nM

SMILES: CC(=O)N1CCN(S(=O)(=O)c2ccc(C(C)C)cc2)[C@@H](C(=O)NCCCN2CCCC2)C1 [Example 405, (R)-4-acetyl-1-(4-isopropyl-benzenesulfonyl)-piperazine-2-carboxylic acid (3-pyrrolidin-1-yl-propyl)-amide]
- IC50 [1]: > 1000 nM
- IC50 [2]: > 1000 nM

SMILES: CCCc1ccc(CNC(=O)[C@H]2CN(c3nc(C)c(C(N)=O)s3)CCN2S(=O)(=O)c2ccc(OC(F)(F)F)cc2)cc1 [Example 406, (R)-4-(5-carbamoyl-4-methyl-thiazol-2-yl)-1-(4-trifluoromethoxy-benzenesulfonyl)-piperazine-2-carboxylic acid 4-propyl-benzylamide]
- IC50 [1]: < 100 nM
- IC50 [2]: < 100 nM

SMILES: CN(C)c1ccc(CNC(=O)[C@H]2CN(c3cnc(C(=O)O)cn3)CCN2S(=O)(=O)c2ccc(OC(F)(F)F)cc2)cn1 [Example 407, (R)-3-[(6-dimethylamino-pyridin-3-ylmethyl)-carbamoyl]-4-(4-trifluoromethoxy-benzenesulfonyl)-3,4,5,6-tetrahydro-2H-[1,2′]bipyrazinyl-5′-carboxylic acid]
- IC50 [1]: < 100 nM
- IC50 [2]: 100 to 1000 nM

SMILES: CC(C)c1ccc(CNC(=O)[C@H]2CN(c3cnc(C(=O)O)cn3)CCN2S(=O)(=O)c2ccc(OC(F)(F)F)cc2)cn1 [Example 408, (R)-3-[(6-isopropyl-pyridin-3-ylmethyl)-carbamoyl]-4-(4-trifluoromethoxy-benzenesulfonyl)-3,4,5,6-tetrahydro-2H-[1,2′]bipyrazinyl-5′-carboxylic acid]
- IC50 [1]: < 100 nM
- IC50 [2]: < 100 nM

SMILES: O=C(NCc1ccc(OC(F)(F)F)cc1)[C@H]1CN(C(=O)Cc2ccncc2)CCN1S(=O)(=O)c1ccc(OC(F)(F)F)cc1 [Example 409, (R)-4-(2-pyridin-4-yl-acetyl)-1-(4-trifluoromethoxy-benzenesulfonyl)-piperazine-2-carboxylic acid 4-trifluoromethoxy-benzylamide]
- IC50 [1]: 100 to 1000 nM
- IC50 [2]: 100 to 1000 nM

SMILES: CN(C)c1ccc(CNC(=O)[C@H]2CN(C(=O)Cc3ccncc3)CCN2S(=O)(=O)c2ccc(OC(F)(F)F)cc2)cc1 [Example 410, (R)-4-(2-pyridin-4-yl-acetyl)-1-(4-trifluoromethoxy-benzenesulfonyl)-piperazine-2-carboxylic acid 4-dimethylamino-benzylamide]
- IC50 [1]: 100 to 1000 nM
- IC50 [2]: < 100 nM

SMILES: CCCc1ccc(CNC(=O)[C@H]2CN(C(=O)Cc3ccncc3)CCN2S(=O)(=O)c2ccc(OC(F)(F)F)cc2)cc1 [Example 411, (R)-4-(2-pyridin-4-yl-acetyl)-1-(4-trifluoromethoxy-benzenesulfonyl)-piperazine-2-carboxylic acid 4-propyl-benzylamide]
- IC50 [1]: < 100 nM
- IC50 [2]: < 100 nM

SMILES: O=C(NCc1ccc(C2CC2)cc1)[C@H]1CN(C(=O)Cc2ccncc2)CCN1S(=O)(=O)c1ccc(OC(F)(F)F)cc1 [Example 412, (R)-4-(2-pyridin-4-yl-acetyl)-1-(4-trifluoromethoxy-benzenesulfonyl)-piperazine-2-carboxylic acid 4-cyclopropyl-benzylamide]
- IC50 [1]: 100 to 1000 nM
- IC50 [2]: < 100 nM

SMILES: CCCc1ccc(CNC(=O)[C@H]2CN(c3ccc(C(=O)O)cc3)CCN2S(=O)(=O)c2ccc(OC(F)(F)F)cc2)cc1 [Example 413, 4-[(R)-3-(4-propyl-benzylcarbamoyl)-4-(4-trifluoromethoxy-benzenesulfonyl)-piperazin-1-yl]-benzoic acid]
- IC50 [1]: < 100 nM
- IC50 [2]: 100 to 1000 nM

SMILES: CCCc1ccc(CNC(=O)[C@H]2CN(c3nc(C)c(C(=O)O)s3)CCN2S(=O)(=O)c2ccc(CC)cc2)cc1 [Example 414, 2-[(R)-4-(4-ethyl-benzenesulfonyl)-3-(4-propyl-benzylcarbamoyl)-piperazin-1-yl]-4-methyl-thiazole-5-carboxylic acid]
- IC50 [1]: < 100 nM
- IC50 [2]: < 100 nM

SMILES: CCCc1ccc(CNC(=O)[C@H]2CN(c3cnc(C(=O)O)cn3)CCN2S(=O)(=O)c2ccc(CC)cc2)cc1 [Example 415, (R)-4-(4-ethyl-benzenesulfonyl)-3-(4-propyl-benzylcarbamoyl)-3,4,5,6-tetrahydro-2H-[1,2′]bipyrazinyl-5′-carboxylic acid]
- IC50 [1]: < 100 nM
- IC50 [2]: < 100 nM
